The text below walks through data of patent publication US10980851B2, “Topical skincare compositions comprising Centella asiatica selected triterpenes” (The Procter & Gamble Company, priority 2018, dated 2021).

For this assay, the system named is gene expression in tert keratinocytes. Kind of assay: Signature free connectivity mapping (C-map) similarity to CAST. To be noted: Concentration Tested 0.01% (wt. %); Fisher Discriminant Analysis. From the text:
Signature Free Method of Querying Perturbagens Using Connectivity Mapping to Test Similarity Among Different Varieties of Perturbagens
The signature-free query method describes methodologies for identifying gene expression similarities among different perturbagens, such as cosmetic actives and/or natural extracts in an already existing tert connectivity map database. “Connectivity map” and “C-map” refer broadly to devices, systems, articles of manufacture, and methodologies for identifying relationships between cellular phenotypes or cosmetic conditions, gene expression, and perturbagens, such as cosmetic actives. […]
The tert C-map database consists of normalized gene expression data of approximately 3200 perturbagens. […] For each individual perturbagen, the output of the normalization includes an expression value for each probe analyzed in the gene expression profiling experiment. […]
The data matrix is analyzed using multivariate statistical analysis. Though described herein with reference to regularized Fisher Discriminant Analysis using a kernel version of the projection matrix, those of ordinary skill in the art will readily appreciate that other forms of multivariate statistical analysis may be employed in other embodiments. […]

As for `C[C@H]1[C@H](C)CC[C@]2(C(=O)O)CC[C@]3(C)C(=CC[C@@H]4[C@@]5(C)C[C@@H](O)[C@H](O)[C@@](C)(CO)[C@@H]5[C@H](O)C[C@]43C)[C@H]12` [Madecassic acid], the “Similarity (distance) Score from CAST” value stood at 0.770. Take Madecassoside: the “Similarity (distance) Score from CAST” value is on record as −0.031.
